Experimental data as given in ChEMBL document CHEMBL1201862, “PubChem BioAssay data set” (2004).
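Test compounds were applied to cells in 96-well plates for 48 hours at 5 doses. GI50 is the concentration that inhibits growth by half.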 Active and inactive are the calls of the source. Rule as the data show it: active = GI50 up to about 1.1 µM and inactive = higher.

Legend:
Assay in all cases: NCI tumour cell line growth inhibition, 48 h
IGROV-1 = tested on: IGROV-1
NCI-H23 = tested on: NCI-H23
UO-31 = tested on: UO-31
K562 = tested on: K562
HCC 2998 = tested on: HCC 2998
RPMI-8226 = tested on: RPMI-8226
M14 = tested on: M14
CAKI-1 = tested on: CAKI-1
MCF7 = tested on: MCF7
HOP-62 = tested on: HOP-62
UACC-257 = tested on: UACC-257
NCI-H522 = tested on: NCI-H522
EKVX = tested on: EKVX
ACHN = tested on: ACHN
OVCAR-8 = tested on: OVCAR-8
SK-MEL-5 = tested on: SK-MEL-5
OVCAR-4 = tested on: OVCAR-4
Malme-3M = tested on: Malme-3M
HOP-92 = tested on: HOP-92
OVCAR-5 = tested on: OVCAR-5

Measured: GI50

CCOC(=O)C(Cc1c2ccccc2cc2ccccc12)(NC(C)=O)C(=O)OCC
inactive: IGROV-1 > 45 µM | NCI-H23 > 100 µM | UO-31 > 85.9 µM | K562 > 69.8 µM | HCC 2998 > 100 µM | RPMI-8226 > 100 µM | M14 > 75.9 µM | CAKI-1 20 µM | MCF7 2.99 µM | HOP-62 > 56 µM | UACC-257 > 100 µM | NCI-H522 64 µM | EKVX > 100 µM | ACHN > 63.1 µM | OVCAR-8 67.6 µM | SK-MEL-5 > 50.6 µM | OVCAR-4 40.4 µM | Malme-3M > 100 µM | HOP-92 14.2 µM | OVCAR-5 > 100 µM

Cc1nn2c(=O)c([N+](=O)[O-])c(/C=C/c3ccc(F)cc3)nc2s1
inactive: IGROV-1 10.5 µM | NCI-H23 15.2 µM | UO-31 8.75 µM | K562 5.69 µM | HCC 2998 11.4 µM | RPMI-8226 3.51 µM | M14 11.3 µM | CAKI-1 8.67 µM | MCF7 3.4 µM | HOP-62 15 µM | UACC-257 10.9 µM | NCI-H522 8.49 µM | EKVX 5.64 µM | ACHN 11.5 µM | OVCAR-8 6.07 µM | SK-MEL-5 7.94 µM | OVCAR-4 11 µM | Malme-3M 11.6 µM | HOP-92 15.5 µM | OVCAR-5 9.89 µM

C#CC1(O)CCC2[C@@H]3CCc4cc(Oc5nc(F)nc(-c6c(C)c(C(=O)OCC)n7ccccc67)n5)ccc4C3CC[C@@]21C (stereo not given in full)
inactive: IGROV-1 > 100 µM | NCI-H23 > 100 µM | UO-31 > 100 µM | K562 29.6 µM | HCC 2998 > 100 µM | RPMI-8226 > 100 µM | M14 > 100 µM | CAKI-1 > 100 µM | MCF7 > 100 µM | HOP-62 > 100 µM | UACC-257 > 100 µM | NCI-H522 > 100 µM | EKVX > 100 µM | ACHN > 100 µM | OVCAR-8 > 100 µM | SK-MEL-5 > 100 µM | OVCAR-4 > 100 µM | Malme-3M > 100 µM | HOP-92 > 100 µM | OVCAR-5 > 100 µM

O=C(N/N=C/c1ccccc1)c1c(-c2cccnc2)cnc2ccccc12
inactive: IGROV-1 58.7 µM | NCI-H23 > 100 µM | UO-31 > 100 µM | K562 44.9 µM | HCC 2998 > 100 µM | RPMI-8226 > 100 µM | M14 > 100 µM | CAKI-1 > 100 µM | MCF7 48.2 µM | HOP-62 87.7 µM | UACC-257 88.9 µM | NCI-H522 > 100 µM | EKVX > 100 µM | ACHN > 100 µM | OVCAR-8 > 100 µM | SK-MEL-5 43.7 µM | OVCAR-4 > 100 µM | Malme-3M > 100 µM | HOP-92 > 100 µM | OVCAR-5 > 100 µM

O=C1C=C/C(=N/c2cccc3c(/N=C4/C=CC(=O)O4)cccc23)O1
inactive: IGROV-1 58.5 µM | NCI-H23 50.4 µM | UO-31 > 100 µM | K562 21.2 µM | HCC 2998 > 100 µM | RPMI-8226 23.1 µM | M14 29.2 µM | CAKI-1 18.9 µM | MCF7 33.3 µM | HOP-62 > 100 µM | UACC-257 22.3 µM | NCI-H522 18.7 µM | EKVX 16.8 µM | ACHN 29 µM | OVCAR-8 20 µM | SK-MEL-5 > 100 µM | OVCAR-4 39.4 µM | Malme-3M 22.2 µM | HOP-92 42.7 µM | OVCAR-5 54.8 µM

COCN1CCN=c2c1c1c3c(c4ccccc4n23)CCC1
inactive: IGROV-1 > 100 µM | NCI-H23 > 100 µM | UO-31 > 100 µM | K562 > 100 µM | HCC 2998 > 100 µM | RPMI-8226 > 100 µM | M14 > 100 µM | CAKI-1 > 100 µM | MCF7 > 100 µM | HOP-62 > 100 µM | UACC-257 > 100 µM | NCI-H522 > 100 µM | EKVX > 100 µM | ACHN > 100 µM | OVCAR-8 > 100 µM | SK-MEL-5 > 100 µM | OVCAR-4 > 100 µM | Malme-3M > 100 µM | HOP-92 > 100 µM | OVCAR-5 > 100 µM

CCCc1cn2c(/C=N/N=C(N)N)c(-c3c(OC)ccc(OC)c3[N+](=O)[O-])nc2s1
inactive: IGROV-1 9.89 µM | NCI-H23 10.9 µM | UO-31 20.4 µM | K562 3.44 µM | HCC 2998 2.57 µM | RPMI-8226 2.54 µM | M14 7.08 µM | CAKI-1 5.57 µM | MCF7 2.81 µM | HOP-62 12.6 µM | UACC-257 7.08 µM | NCI-H522 8.79 µM | EKVX 18 µM | ACHN 18 µM | OVCAR-8 14.6 µM | SK-MEL-5 13.3 µM | OVCAR-4 20.2 µM | Malme-3M 10.3 µM | HOP-92 12.5 µM | OVCAR-5 15.6 µM
